Common to all, as to type: in vivo
The test system of data set [1] is Blattela germanica (cockroach nymphs). Briefly: Residual test, mortality of Blattela germanica nymphs (BG). Conditions: 3 days. How it is done:
(§1) The activity of the Product was determined using a variety of insect pests The Product was used in the form of liquid preparations containing from 100 to 500 parts per million (ppm) by weight of the Product. The preparations were made by dissolving the Product in acetone and diluting the solutions with water containing 0.1% by weight of a wetting agent sold under the trade name "SYNPERONIC" NX until the liquid preparations contained the required concentration of the Product "SYNPERONIC" is a Registered Trade Mark.
(§2) The test procedure adopted with regard to each pest was basically the same and comprised supporting a number of the pests on a medium which was usually a host plant or a foodstuff on which the pests feed, and treating either or both the pests and the medium with the preparations. The mortality of the pests was then assessed at periods usually varying from one to seven days after the treatment.
(§3) The results of the tests are given in Table III for each of the Products, at the rate in parts per million given in the second column as a grading of mortality designated as A, B or C wherein A indicates 80-100% mortality or knockdown, B indicates 50-79% mortality knockdown or knockdown and C indicates less than 50% mortality or knockdown.
(§4) In Table III the pest organism used is designated by a letter code and the pests species, the support medium or food, and the type and duration of test is given in Table II.

The subject of the next data set is Myzus persicae (aphids). Briefly: Contact test, mortality of Myzus persicae on Chinese Cabbage leaf (MP). The conditions noted are these: 72 h, 3 days, read-out: grading of mortality, MP. The protocol:
as §1, §2, §3, §4

Data set [2] relates to Musca domestica (houseflies - adults). Put plainly: Contact test, mortality of Musca domestica adults (MD). Conditions: 24 h, 1 day, read-out: grading of mortality, MD. The protocol:
as §1, §2, §3, §4

Data set [3] has as its system Diabrotica balteata (rootworm larvae). Briefly: Residual test, mortality of Diabrotica balteata larvae, Filter paper/maize seed (DB). The conditions noted are these: 72 h, 3 days, read-out: grading of mortality, DB. How it is done: as §1, §2, §3, §4
Data set [4] deals with Heliothis virescens (tobacco budworm - larvae). Briefly: whole plant or invertebrate. The conditions noted are these: in Gossypium hirsutum, 72 h, read-out: grading of mortality, HV. How it is done:
as §1, §2, §3, §4
(tobacco budworm - larvae)

Data set [5] relates to Nilaparvata lugens (brown plant hopper - nymphs). Briefly: Contact test, mortality of Nilaparvata lugens nymphs on Rice plant (NL). Conditions: 72 h, 3 days, read-out: grading of mortality, NL. How it is done: as §1, §2, §3, §4
Data set [6] concerns Tetranychus urticae (spider mites - adult). Put plainly: Contact test, mortality of Tetranychus urticae adults on French bean leaf (TUa). Conditions: 72 h, 3 days, read-out: grading of mortality, TuA. The protocol: as §1, §2, §3, §4
For data set [7], the system named is Spodoptera exigua (lesser army worm - larvae). Put plainly: Residual test, mortality of Spodoptera exigua larvae on Cotton leaf (SP). The conditions noted are these: 72 h, 3 days, read-out: grading of mortality, SP. The protocol: as §1, §2, §3, §4
(lesser army worm - larvae)

Data set [8] has as its system Tetranychus urticae (spider mites - ova). Briefly: Contact test, mortality of Tetranychus urticae ova on French bean leaf (TUe). The conditions noted are these: 144 h, 6 days, read-out: grading of mortality, TuE. How it is done: as §1, §2, §3, §4

`CCOc1ccc(C(COCc2cccc(Oc3ccc(Cl)cc3)c2)C(F)(F)F)cc1` (racemic) [Compound 3, (RS)-1,1,1-trifluoro-2-(4-ethoxyphenyl)-3-[3-(4-chlorophenoxy)benzyloxy]propane]: the “grading of mortality, BG” value in data set [1] (250 ppm) is “A (80-100% mortality or knockdown)”. In addition, the mortality at 250 ppm in the data set on Myzus persicae (aphids) (250 ppm) is 80 to 100%; in data set [2] (250 ppm), 80 to 100%; in data set [3] (250 ppm) it was 80 to 100%; in data set [4] it was less than 50%; in data set [5] (250 ppm) it was 80 to 100%; in data set [6] (250 ppm), less than 50%.
On to `CCOc1ccc(C(COCc2ccc(F)c(Oc3ccc(Cl)cc3)c2)C(F)(F)F)cc1` (racemic) [Compound 5, (RS)-1,1,1-trifluoro-2-(4-ethoxyphenyl)-3-[3-(4-chlorophenoxy)-4-fluorobenzyloxy]propane], for which the “grading of mortality, BG” value in data set [1] (500 ppm) is “A (80-100% mortality or knockdown)”. Moreover, the mortality at 500 ppm in the data set with Myzus persicae (aphids) fell in the range of 80 to 100%; in data set [2], 80 to 100%; in data set [3], 80 to 100%; in data set [4] it was 80 to 100%; in [5], 80 to 100%; in [6] it was 50 to 79%.
In the case of `Fc1ccc(COCC(c2ccc(OC(F)(F)F)cc2)C(F)(F)F)cc1Oc1ccc(Cl)cc1` (racemic) [Compound 29, (RS)-1,1,1-Trifluoro-2-(4-trifluoromethoxyphenyl)-3-[3-(4-chlorophenoxy)-4-fluorobenzyloxy]propane], the “grading of mortality, BG” value in [1] (500 ppm) was “A (80-100% mortality or knockdown)”. The mortality at 500 ppm (with Myzus persicae (aphids); in data set [2]; in [3]; in data set [4]; in [7]; in [5]) was 80 to 100% in each case. The mortality at 500 ppm in data set [6] and in data set [8] was 80 to 100% each time.
In the case of `Fc1ccc(COCC(c2ccc(C(F)(F)F)cc2)C(F)(F)F)cc1Oc1ccccc1` (racemic) [Compound 38, (RS)-1,1,1-Trifluoro-2-(4-trifluoromethylphenyl)-3-(3-phenoxy-4-fluorobenzyloxy) propane], in data set [1] (500 ppm), the “grading of mortality, BG” value is “A (80-100% mortality or knockdown)”. Further, the mortality at 500 ppm (in the data set with Myzus persicae (aphids); in [2]; in data set [3]; in [4]; in [7]; in [5]) was 80 to 100% in each case. Moreover, the mortality at 500 ppm in data set [6] and in data set [8] was 80 to 100% in each case.
With `FC(F)(F)c1ccc(C(COCc2cccc(Oc3ccccc3)c2)C(F)(F)F)cc1` (racemic) [Compound 39, (RS)-1,1,1-Trifluoro-2-(4-trifluoromethylphenyl)-3-(3-phenoxybenzyloxy)propane], the “grading of mortality, BG” value in data set [1] (500 ppm) is “A (80-100% mortality or knockdown)”. Besides, the mortality at 500 ppm (in the data set with Myzus persicae (aphids); in data set [2]; in data set [3]; in [4]; in data set [7]; in data set [5]) was 80 to 100% throughout. Also, the values for the mortality at 500 ppm in data set [6] and in data set [8] were less than 50% and 80 to 100%, respectively.

These data come from patent US4891450A, “Process for intermediates for insecticidal compounds” (Imperial Chemical Industries PLC, priority 1987, dated 1990).
